From US20260124158A1, “COMPOSITIONS AND METHODS TO REDUCE BIOLOGICAL AGE OF AN ADULT ANIMAL” (Société des Produits Nestlé S.A., priority 2022, published 2026)

What was measured:
[1] = tested on: muscle gastrocnemius of old mice; experiment: Muscle biological age by DNA methylation, pan tissue clock, in old mice; format: in vivo, mouse
Source text: (§1) All animal experiments comply with the International Guiding Principles for Biomedical Research Involving Animals developed by the Council for International Organizations of Medical Sciences and the following guidelines for animal welfare. 24 old mice aged 18 months and 12 young mice aged 6 months were kept in a temperature-and humidity-controlled environment with a 12:12-h light-dark cycle. Mice had access to nesting and enrichment materials and were provided with ad libitum access to water and food.
(§2) Old mice were split in two groups and received either 20 mg/kg body weight of thymol or vehicle by gavage daily for 12 weeks, whereas young mice received the vehicle only (n=12). Animals found dead or euthanized at the humane endpoint for pain or physical distress, have been excluded from the analysis. At the end of the treatment, mice were euthanized with isoflurane after 2-hours fasting. Muscle gastrocnemius has been dissected samples and snap frozen in liquid nitrogen and stored at −80° C.
(§3) DNA extraction was performed on 100 mg of muscle using QIAGEN DNeasy Blood and Tissue kit (Cat. No: 69506) and following manufacturer recommendations. DNA was quantified using the DropSense technology (from Unchained Labs). […]
(§4) To calculate biological age, raw data have been analysed using algorithms (clocks) developed by the Clock Foundation. […] Data were plotted and analysed using GraphPad Prism 9. […]

[2] = tested on: muscle gastrocnemius of old mice; experiment: Muscle biological age by DNA methylation, intervention muscle clock, in old mice; format: in vivo, mouse; details: 20 mg/kg/day for 12 weeks
Source text: as §1, §2, §3, §4

In the case of `Cc1ccc(C(C)C)c(O)c1` [thymol], the “reduction of muscle biological age measured with the pan tissue clock” value ([1]; 20 mg/kg/day by gavage daily for 12 weeks, vs old vehicle) is reported as 20.3%, the “effect on biological age in old mice” value ([1]; 20 mg/kg/day for 12 weeks) is reported as “significantly reduced biological age in old mice” and the “effects on biological age using the interventions muscle clock” value [2] is reported as “confirmed”.
